Laboratory results reported in US10597366B2, “Aryl ethers and uses thereof” (Peloton Therapeutics, Inc., priority 2013, dated 2020).
Where two headings read alike, the source gives them in different places.

How the values were obtained:
[1] = tested on: 786-O-Hif-Luc cells (luciferase gene driven by multiple HIF responsive elements); experiment: Luciferase Assay; type: cell-based; conditions: 24 h, read-out: Mean Luciferease EC50
Method: A pool of infected cells were then selected against 2 μg/mL of puromycin (P8833, Sigma) for 10 days followed by limited dilution to select single clones.
Each concentration was tested in triplicate. After about 24 hours, luciferase activity was determined using ONE-Glo Luciferase Assay Reagent (E6110, Promega) following the manufacturer's recommended procedure. EC50 were calculated by using Dotmatics software.

[2] = tested on: VEGFA concentration in medium of 786-O cells; experiment: VEGF ELISA Assay; type: cell-based; conditions: Homo sapiens
Method: Each concentration had duplicated wells. About 20 hours later, medium was removed by suction and each well was supplied with 180 μL of growth medium. About 20 μl freshly-made 10× compound stocks were added to each well. […] The EC50 was calculated by GraphPad Prism using the dose-response-inhibition (four parameter) equation. The cell seeded plate was then subjected to CellTiter-Glo luminescence cell viability assay (Promega) by adding 50 μL of Celltiter Glo reagent into each well and shaking the plate for 8 minutes at 550 rpm (Thermomixer R, Eppendorf) then read luminescence signal in plate reader (3 second delay, 0.5 second/well integration time, Synergy 2 multi Detection Microplate reader) immediately.

[3] = 786-O-Hif-Luc cells, about 24 hours
[4] = 786-0, 786-O cells, read-out: Mean VEGF ELISA EC50
[5] = 786-0, read-out: Mean VEGF ELISA EC50

| EC50 [1, 3] | EC50 [2, 4] | EC50 [1] | EC50 [2, 5] | Structure (SMILES) |
| --- | --- | --- | --- | --- |
| 11 nM | 16 nM |  |  | N#Cc1cccc(Oc2ccc(S(=O)(=O)C(F)F)c3c2CC(F)(F)[C@H]3O)c1 [Compound 236, (S)-3-((7-((difluoromethyl)sulfonyl)-2,2-difluoro-1-hydroxy-2,3-dihydro-1H-inden-4-yl)oxy)benzonitrile] |
| 13 nM | 15 nM |  |  | O=S(=O)(c1ccc(Oc2ccc(F)c(F)c2)c2c1[C@H](O)C(F)(F)C2)C(F)(F)F [Compound 233, (S)-4-(3,4-Difluorophenoxy)-2,2-difluoro-7-((trifluoromethyl)sulfonyl)-2,3-dihydro-1H-inden-1-ol] |
| 190 nM | 1440 nM |  |  | N#Cc1cc(F)cc(Oc2ccc(S(=N)(=O)CF)c3c2CC(F)(F)[C@H]3O)c1 (single isomer, unassigned) [Compound 274] |
| 160 nM | 830 nM |  |  | N#Cc1cc(Oc2ccc(S(=O)(=O)C(F)(F)F)c3c2CC(F)(F)[C@H]3O)c[n+]([O-])c1 [Compound 267, (S)-3-cyano-5-((2,2-difluoro-1-hydroxy-7-((trifluoromethyl)sulfonyl)-2,3-dihydro-1H-inden-4-yl)oxy)pyridine 1-oxide] |
| 9 nM | 26 nM |  |  | O=S(=O)(c1ccc(Oc2cncc(F)c2)c2c1[C@H](O)C(F)(F)C2)C(F)(F)F [Compound 309, (S)-2,2-difluoro-4-((5-fluoropyridin-3-yl)oxy)-7-((trifluoromethyl)sulfonyl)-2,3-dihydro-1H-inden-1-ol] |
| 3.1 nM | 6.2 nM |  |  | CS(=O)(=O)c1ccc(Oc2cc(F)cc(C#N)c2)c2c1[C@H](O)C(F)(F)[C@@H]2F [Compound 292, 3-fluoro-5-[(1S,3R)-2,2,3-trifluoro-1-hydroxy-7-methylsulfonyl-indan-4-yl]oxy-benzonitrile] |
|  |  | 41 nM | 50 nM | CS(=O)(=O)c1ccc(Oc2cc(Cl)cc(C#N)c2)c2c1[C@H](O)C(F)(F)C2 [Compound 234, (S)-3-Chloro-5-((2,2-difluoro-1-hydroxy-7-(methylsulfonyl)-2,3-dihydro-1H-inden-4-yl)oxy)benzonitrile] |
| 490 nM | 150 nM |  |  | CS(=O)(=O)c1ccc(Oc2cncc(C#N)c2)c2c1[C@H](O)C(F)(F)C2 [Compound 325, (S)-5-((2,2-Difluoro-1-hydroxy-7-(methylsulfonyl)-2,3-dihydro-1H-inden-4-yl)oxy)nicotinonitrile] |
| 4.6 nM | 6.2 nM |  |  | N#Cc1cc(F)cc(Oc2ccc(C(F)(F)F)c3c2CC(F)(F)[C@H]3O)c1 [Compound 273, 3-[(1S)-2,2-Difluoro-1-hydroxy-7-(trifluoromethyl)indan-4-yl]oxy-5-fluoro-benzonitrile] |

The next lines start with the molecule.

| Structure (SMILES) | EC50 [1, 3] | EC50 [2, 4] | EC50 [1] | EC50 [2, 5] |
| --- | --- | --- | --- | --- |
| O=S(=O)(c1ccc(Oc2cc(F)cc(Cl)c2)c2c1C(O)C(F)(F)C2)C(F)F (centres unmarked) [Compound 8, 4-(3-chloro-5-fluoro-phenoxy)-7-(difluoromethylsulfonyl)-2,2-difluoro-indan-1-ol] | 17 nM | 33 nM |  |  |
| O=S(=O)(c1ccc(Oc2cc(F)cc(Cl)c2)c(C(F)F)c1)C(F)(F)F [Compound 124, 1-(3-Chloro-5-fluorophenoxy)-2-(difluoromethyl)-4-((trifluoromethyl)sulfonyl)benzene] |  |  | 330 nM | 400 nM |
| N#Cc1cc(F)cc(Oc2ccc(S(=O)(=O)C(F)F)cc2Br)c1 [Compound 132, 3-(2-Bromo-4-((difluoromethyl)sulfonyl)phenoxy)-5-fluorobenzonitrile] | 1400 nM | 680 nM |  |  |
| N#Cc1cccc(Oc2ccc(S(=O)(=O)C(F)(F)F)c(C#N)c2Br)c1 [Compound 99, 2-Bromo-3-(3-cyanophenoxy)-6-((trifluoromethyl)sulfonyl)benzonitrile] | 420 nM | 550 nM |  |  |
| O=S(=O)(c1ccc(Oc2cc(F)cc(F)c2)c2c1[C@H](O)CC2)C(F)F [Compound 2, (R)-7-((Difluoromethyl)sulfonyl)-4-(3,5-difluorophenoxy)-2,3-dihydro-1H-inden-1-ol] | 70 nM | 62 nM |  |  |
| O=S(=O)(c1ccc(Oc2cc(F)cc(F)c2)c2c1C(O)C(F)(F)C2)C(F)F (centres unmarked) [Compound 9, 7-(difluoromethylsulfonyl)-4-(3,5-difluorophenoxy)-2,2-difluoro-indan-1-ol] | 9 nM | 6 nM |  |  |
| O=S(=O)(c1ccc(Oc2cncc(Cl)c2)c2c1[C@H](O)C(F)(F)C2)C(F)(F)F [Compound 186, (S)-4-((5-Chloropyridin-3-yl)oxy)-2,2-difluoro-7-((trifluoromethyl)sulfonyl)-2,3-dihydro-1H-inden-1-ol] | 11 nM | 13 nM |  |  |
| N#Cc1cc(F)cc(Oc2ccc(S(=O)(=O)C(F)(F)F)c3c2CC(F)(F)[C@H]3O)c1 [Compound 185, (S)-3-((2,2-Difluoro-1-hydroxy-7-((trifluoromethyl)sulfonyl)-2,3-dihydro-1H-inden-4-yl)oxy)-5-fluorobenzonitrile] | 3 nM | 4 nM |  |  |
| O=S(=O)(CF)c1ccc(Oc2cc(F)cc(F)c2)c2c1[C@H](O)C(F)(F)C2 [Compound 64, (S)-4-(3,5-Difluorophenoxy)-2,2-difluoro-7-((fluoromethyl)sulfonyl)-2,3-dihydro-1H-inden-1-ol] | 5 nM | 1 nM |  |  |
| N#Cc1cncc(Oc2ccc(S(=O)(=O)C(F)(F)F)c3c2C[C@@H](F)[C@H]3O)c1 [Compound 225, 5-(((1S,2R)-2-Fluoro-1-hydroxy-7-((trifluoromethyl)sulfonyl)-2,3-dihydro-1H-inden-4-yl)oxy)nicotinonitrile] | 25 nM | 69 nM |  |  |
| O=S(=O)(c1ccc(Oc2cc(F)cc(F)c2)c2c1[C@H](O)CC2)C(F)(F)F [Compound 55, (R)-4-(3,5-Difluorophenoxy)-7-((trifluoromethyl)sulfonyl)-2,3-dihydro-1H-inden-1-ol] | 32 nM | 35 nM |  |  |
| O=S(=O)(c1ccc(Oc2cc(F)cc(Cl)c2)c2c1[C@H](O)C(F)(F)C2)C(F)F [Compound 158, (1S)-4-(3-Chloro-5-fluoro-phenoxy)-7-(difluoromethylsulfonyl)-2,2-difluoro-indan-1-ol] | 5 nM | 6 nM |  |  |
| O=S(=O)(c1ccc(Oc2cc(F)cc(Cl)c2)c(Cl)c1CO)C(F)F [Compound 41, (2-Chloro-3-(3-chloro-5-fluorophenoxy)-6-((difluoromethyl)sulfonyl)phenyl)methanol] |  |  | 400 nM | 570 nM |
| CS(=O)(=NC#N)c1ccc(Oc2cc(F)cc(F)c2)c2c1C(O)C(F)(F)C2 (centres unmarked) [Compound 191, N-((7-(3,5-difluorophenoxy)-2,2-difluoro-3-hydroxy-2,3-dihydro-1H-inden-4-yl)(methyl)(oxo)-λ^6-sulfanylidene)cyanamide] | 53 nM | 130 nM |  |  |
| CS(=O)(=O)c1ccc(Oc2cc(F)cc(F)c2)c2c1C(O)C(F)(F)C2 (centres unmarked) [Compound 159, 4-(3,5-Difluorophenoxy)-2,2-difluoro-7-(methylsulfonyl)-2,3-dihydro-1H-inden-1-ol] | 5 nM | 7 nM |  |  |
| O=S(=O)(c1ccc(Oc2ccc(F)cc2)c2c1[C@H](O)C(F)(F)C2)C(F)(F)F [Compound 230, (S)-2,2-Difluoro-4-(4-fluorophenoxy)-7-((trifluoromethyl)sulfonyl)-2,3-dihydro-1H-inden-1-ol] | 16 nM | 29 nM |  |  |
